In assay [1] the target is T1, GST-tagged Tankyrase-1 (1023-1327 aa) (Homo sapiens, UniProt O95271).
T1 construct: GST-tagged Tankyrase-1 (1023-1327 aa)
Nature of the assay: Tankyrase 1 autoparsylation assay (HTRF enzyme assay). It is filed as biochemical. Here is the method: (§1) The autoparsylation assay was run in two steps: the enzymatic reaction in which GST-tagged Tankyrase-1, resp Tankyrase-2 transferred biotinylated ADP-ribose to itself from biotinylated NAD as co-substrate and the detection reaction where a time resolved FRET between cryptate labelled anti-GST bound to the GST tag of the enzyme and Xlent® labelled-streptavidin bound the biotin-parsylation residue was analysed. The autoparsylation activity was detectable directly via the increase in HTRF signal.
(§2) The autoparsylation assay was performed as 384-well HTRF® (Cisbio, Codolet, France) assay format in Greiner low volume nb 384-well microtiter plates and was used for high throughput screen. 250 nM GST-tagged Tankyrase-1 (1023-1327 aa), respectively about 250 nM GST-tagged Tankyrase-2 (873-1166 aa) and 5 μM bio-NAD (Biolog, Life science Inst., Bremen, Germany) as co-substrate were incubated in a total volume of 5 μl (50 mM HEPES, 4 mM Mg-chloride, 0.05% Pluronic F-68, 1.4 mM DTT, 0.5% DMSO, pH 7.7) in the absence or presence of the test compound (10 dilution concentrations) for 90 min at 30° C. The reaction was stopped by the addition of 1 μl 50 mM EDTA solution. 2 μl of the detection solution (1.6 μM SA-Xlent® (Cisbio, Codolet, France), 7.4 nM Anti-GST-K® (Eu-labelled anti-GST, Cisbio, Codolet, France) in 50 mM HEPES, 800 mM KF, 0.1% BSA, 20 mM EDTA, 0.1% CHAPS, pH 7.0) were added. After 1 h incubation at room temperature the HTRF was measured with an Envision multimode reader (Perkin Elmer LAS Germany GmbH) at excitation wavelength 340 nm (laser mode) and emission wavelengths 615 nm and 665 nm. The ratio of the emission signals was determined. The full value used was the inhibitor-free reaction. The pharmacological zero value used was XAV-939 (Tocris) in a final concentration of 5 μM. The inhibitory values (IC50) were determined using either the program Symyx Assay Explorer® or Condosseo® from GeneData.

The next assay has as its system tankyrase 1/2. Nature of the assay: Measurement of cellular inhibition of tankyrase (Axin2 level, Luminex based assay, DLD1 cells). The note with it: 24 hours, increase of Axin2 level, read-out: EC50 tankyrase 1/2 (cell assay). Here is the method: Measurement of Cellular Inhibition of Tankyrase
Since Tankyrases have been described to modulate cellular level of Axin2 (Huang et al., 2009; Nature) the increase of Axin2 level is used as read-out for determination of cellular inhibition of Tankyrases in a Luminex based assay.
Cells of the colon carcinoma cell line DLD1 are plated in 96 well plates with 1.5×10^4 cells per well. Next day, cells are treated with a serial-dilution of test compound in seven steps as triplicates with a final DMSO concentration of 0.3%. After 24 hours, cells are lysed in lysis buffer (20 mM Tris/HCl pH 8.0, 150 mM NaCl, 1% NP40, 10% Glycerol) and lysates are cleared by centrifugation through a 96 well filter plate (0.65 μm). Axin2 protein is isolated from cell lysates by incubation with a monoclonal anti-Axin2 antibody (R&D Systems #MAB6078) that is bound to fluorescent carboxybeads. Then, bound Axin2 is specifically detected with a polyclonal anti-Axin2 antibody (Cell Signaling #2151) and an appropriate PE-fluorescent secondary antibody. The amount of isolated Axin2 protein is determined in a Luminex^200 machine (Luminex Corporation) according to the manufacturer's instruction by counting 100 events per well. […] For analysis, the obtained data were normalized against the untreated solvent control and fitted for determination of the EC50 values using the Assay Explorer software (Accelrys).

Assay [2] concerns the target T2, GST-tagged Tankyrase-2 (873-1166 aa) (Homo sapiens, UniProt Q9H2K2).
T2 construct: GST-tagged Tankyrase-2 (873-1166 aa)
Nature of the assay: Tankyrase 2 autoparsylation assay (HTRF enzyme assay). The format is biochemical. Here is the method:
as §1, §2

In assay [3] the target is T3, GST-tagged Tnks-2 (873-1166 aa) (Homo sapiens, UniProt Q9H2K2).
T3 construct: GST-tagged Tnks-2 (873-1166 aa, prepared in-house); made in house
T3 sequence (Q9H2K2 873-1166): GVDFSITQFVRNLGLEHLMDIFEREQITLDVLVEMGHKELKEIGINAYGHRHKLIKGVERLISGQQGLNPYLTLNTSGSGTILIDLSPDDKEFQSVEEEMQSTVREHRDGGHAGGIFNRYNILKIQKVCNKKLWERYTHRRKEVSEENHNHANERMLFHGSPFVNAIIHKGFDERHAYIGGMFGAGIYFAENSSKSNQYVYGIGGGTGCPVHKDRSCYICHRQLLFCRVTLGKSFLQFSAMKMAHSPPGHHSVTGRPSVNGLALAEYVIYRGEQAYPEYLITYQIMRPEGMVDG
Nature of the assay: TNKS 2 activity ELISA (autoparsylation assay). It is filed as biochemical. The note with it: read-out: IC50 tankyrase 2 (ELISA assay). Here is the method: (§3) Biochemical Activity Testing of TNKS 1 and 2: Activity ELISA (Autoparsylation Assay)
(§4) For analysis of autoparsylation activity of TNKS 1 and 2 an activity ELISA was performed: In the first step GST tagged TNKS was captured on a Glutathione coated plate. Then the activity assay with biotinylated NAD was performed in the absence/presence of the compounds. During the enzymatic reaction GST tagged TNKS transferred biotinylated ADP-ribose to itself from biotinylated NAD as co-substrate. For the detection streptavidin-HRP conjugate was added that bound to the biotinylated TNKS and was thereby captured to the plates. The amount of biotinylated resp autoparsylated TNKS was detected with a luminescence substrate for HRP. The level of the luminescence signal correlated directly with the amount of autoparsylated TNKS and therefore with activity of TNKS.
(§5) The activity ELISA was performed in 384 well Glutathione coated microtiter plates (Express capture Glutathione coated plate, Biocat, Heidelberg, Germany). The plates were pre-equilibrated with PBS. Then the plates were incubated with 50 μl 20 ng/well GST-tagged Tnks-1 (1023-1327 aa, prepared in-house), respectively GST-tagged Tnks-2 (873-1166 aa, prepared in-house) in assay buffer (50 mM HEPES, 4 mM Mg-chloride, 0.05% Pluronic F-68, 2 mM DTT, pH 7.7) overnight at 4° C. The plates were washed 3 times with PBS-Tween-20. The wells were blocked by incubation at room temperature for 20 minutes with 50 μl blocking buffer (PBS, 0.05% Tween-20, 0.5% BSA). Afterwards the plates were washed 3 times with PBS-Tween-20. The enzymatic reaction was performed in 50 μl reaction solution (50 mM HEPES, 4 mM Mg-chloride, 0.05% Pluronic F-68, 1.4 mM DTT, 0.5% DMSO, pH 7.7) with 10 μM bio-NAD (Biolog, Life science Inst., Bremen, Germany) as co-substrate in the absence or presence of the test compound (10 dilution concentrations) for 1 hour at 30° C. The reaction was stopped by 3 times washing with PBS-Tween-20. For the detection 50 μl of 20 ng/μl Streptavidin, HRP conjugate (MoBiTec, Göttingen, Germany) in PBS/0.05% Tween-20/0.01% BSA were added and the plates were incubated for 30 minutes at room temperature. After three times washing with PBS-Tween-20 50 μl of SuperSignal ELISA Femto Maximum sensitivity substrate solution (ThermoFisherScientific (Pierce), Bonn, Germany) were added. Following a 1 minute incubation at room temperature luminescence signals were measured with an Envision multimode reader (Perkin Elmer LAS Germany GmbH) at 700 nm. The full value used was the inhibitor-free reaction. The pharmacological zero value used was XAV-939 (Tocris) in a final concentration of 5 μM. The inhibitory values (IC50) were determined using either the program Symyx Assay Explorer® or Condosseo® from GeneData.

For assay [4], the target named is T4, GST-tagged Tnks-1 (1023-1327 aa) (Homo sapiens, UniProt O95271).
T4 construct: GST-tagged Tnks-1 (1023-1327 aa, prepared in-house); made in house
T4 sequence (O95271 1023-1327): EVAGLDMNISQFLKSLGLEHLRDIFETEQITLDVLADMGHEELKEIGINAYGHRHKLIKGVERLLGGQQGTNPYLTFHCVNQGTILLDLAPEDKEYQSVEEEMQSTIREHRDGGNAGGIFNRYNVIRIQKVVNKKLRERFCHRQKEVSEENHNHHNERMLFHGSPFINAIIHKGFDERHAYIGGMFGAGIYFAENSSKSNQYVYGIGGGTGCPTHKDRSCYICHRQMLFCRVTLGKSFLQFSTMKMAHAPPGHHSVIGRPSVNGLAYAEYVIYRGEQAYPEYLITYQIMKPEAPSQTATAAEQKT
Nature of the assay: TNKS 1 activity ELISA (autoparsylation assay). It is filed as biochemical. The note with it: read-out: IC50 tankyrase 1 (ELISA assay). Here is the method:
as §3, §4, §5

Data on 17 molecules can be found in US9339503B2, “Tetrahydro-quinazolinone derivatives as TANK and PARP inhibitors” (MERCK PATENT GMBH, priority 2012, dated 2016).

Structures are written as SMILES. Bounds are passed on as bounds.

T2 sequence (Q9H2K2 873-1166): as the sequence (Q9H2K2 873-1166) above
T1 sequence (O95271 1023-1327): as the sequence (O95271 1023-1327) above

Consider `O=C(N1CCOCC1)N1CCN(c2nc3c(c(=O)[nH]2)CCCC3)CC1` [Compound A20, 2-[4-(Morpholine-4-carbonyl)piperazin-1-yl]-5,6,7,8-tetrahydro-3H-quinazolin-4-one], for which the IC50 in assay [1] and in assay [2] was 3 to 50 µM in each case. Further, the EC50 with tankyrase 1/2 was in the range of 3 to 50 µM.

Consider `CCOc1ccc(N2CCN(c3nc4c(c(=O)[nH]3)CCCC4)CC2)cc1` [Compound A48, 2-[4-(4-ethoxyphenyl)piperazin-1-yl]-5,6,7,8-tetrahydro-3H-quinazolin-4-one], for which the 50% inhibitory concentration (IC50) in assay [1] is 0.3 to 3 µM; in assay [3] it was less than 0.3 µM; in assay [4], less than 0.3 µM; in assay [2], 0.3 to 3 µM.

`O=C(CN1CCN(c2nc3c(c(=O)[nH]2)CCCC3)CC1)Nc1ccccn1` [Compound A18, N-pyridin-2-yl-2-[4-(4-oxo-3,4,5,6,7,8-hexahydroquinazolin-2-yl)piperazin-1-yl]-acetamide]: the IC50 in assay [1] and in assay [2] was 0.3 to 3 µM each time. Also, the EC50 with tankyrase 1/2 fell in the range of 3 to 50 µM.

Consider `O=c1[nH]c(N2CCC(O)(c3ccccc3)CC2)nc2c1CCCC2` [Compound A35, 2-(4-hydroxy-4-phenyl-1-piperidyl)-5,6,7,8-tetrahydro-3H-quinazolin-4-one], for which the half-inhibitory concentration (IC50) in assay [1] and in assay [2] was 0.3 to 3 µM throughout. Also, the EC50 in the assay on tankyrase 1/2 fell in the range of 0.3 to 3 µM.

As for `CC(C)(C)N1CCN(c2nc3c(c(=O)[nH]2)CCCC3)CC1` [Compound A13, 2-(4-tert-Butylpiperazin-1-yl)-5,6,7,8-tetrahydro-3H-quinazolin-4-one], the IC50 in assay [1] and in assay [2] was 0.3 to 3 µM throughout. Moreover, the EC50 in the assay on tankyrase 1/2 fell in the range of 3 to 50 µM.

Regarding `CC(C)Oc1ccccc1N1CCN(c2nc3c(c(=O)[nH]2)CCCC3)CC1` [Compound A42, 2-[4-(2-isopropoxyphenyl)piperazin-1-yl]-5,6,7,8-tetrahydro-3H-quinazolin-4-one], the IC50 in assay [1] and in assay [2] was 0.3 to 3 µM in each case.

Turning to `O=c1[nH]c(N2CCN(CCO)CC2)nc2c1CCCC2` [Compound A25, 2-[4-(2-hydroxyethyl)piperazin-1-yl]-5,6,7,8-tetrahydro-3H-quinazolin-4-one], the IC50 in assay [1] and in assay [2] was 3 to 50 µM each time.

Regarding `O=c1[nH]c(N2CCN(CCc3ccccn3)CC2)nc2c1CCCC2` [Compound A26, 2-[4-[2-(2-pyridyl)ethyl]piperazin-1-yl]-5,6,7,8-tetrahydro-3H-quinazolin-4-one], the concentration for half-maximal inhibition (IC50) in assay [1] and in assay [2] was 0.3 to 3 µM in each case.

As to `O=c1[nH]c(N2CCN(c3cccnc3)CC2)nc2c1CCCC2` [Compound A32, 2-[4-(3-pyridyl)piperazin-1-yl]-5,6,7,8-tetrahydro-3H-quinazolin-4-one], the 50% inhibitory concentration (IC50) in assay [1] and in assay [2] was 0.3 to 3 µM each time.

On to `O=C(N1CCCCC1)N1CCN(c2nc3c(c(=O)[nH]2)CCCC3)CC1` [Compound A15, 2-[4-(Piperidine-1-carbonyl)piperazin-1-yl]-5,6,7,8-tetrahydro-3H-quinazolin-4-one], for which the IC50 in assay [1] and in assay [2] was 3 to 50 µM each time. Besides, the EC50 with tankyrase 1/2 is 3 to 50 µM.

Regarding `COc1ccc(N2CCN(c3nc4c(c(=O)[nH]3)CCCC4)CC2=O)cc1` [Compound A14, 2-[4-(4-Methoxyphenyl)-3-oxopiperazin-1-yl]-5,6,7,8-tetrahydro-3H-quinazolin-4-one], the IC50 in assay [1] and in assay [2] was 3 to 50 µM in each case. Further, in the assay on tankyrase 1/2, the EC50 lay in the range of 3 to 50 µM.

For `COc1ccc(C2(O)CCN(c3nc4c(c(=O)[nH]3)CCCC4)CC2)cc1` [Compound A53, 2-[4-hydroxy-4-(4-methoxy-phenyl)-piperidin-1-yl]-5,6,7,8-tetrahydro-3H-quinazolin-4-one], the IC50 in assay [1] and in assay [2] was 0.3 to 3 µM in each case. Also, the EC50 with tankyrase 1/2 lay in the range of 0.3 to 3 µM.

As for `O=c1[nH]c(N2CCN(c3cccc(O)n3)CC2)nc2c1CCCC2` [Compound A16, 2-[4-(6-Hydroxypyridin-2-yl)piperazin-1-yl]-5,6,7,8-tetrahydro-3H-quinazolin-4-one], the half-inhibitory concentration (IC50) in assay [1] and in assay [2] was 3 to 50 µM throughout. The EC50 in the assay with tankyrase 1/2 fell in the range of 3 to 50 µM.

Turning to `O=c1[nH]c(N2CCN(c3ccccc3OC(F)(F)F)CC2)nc2c1CCCC2` [Compound A43, 2-[4-[2-(trifluoromethoxy)phenyl]piperazin-1-yl]-5,6,7,8-tetrahydro-3H-quinazolin-4-one], the IC50 in assay [1] lay within 0.3 to 3 µM; in assay [2] it was 3 to 50 µM.

Take `N#CCc1ccc(N2CCN(c3nc4c(c(=O)[nH]3)CCCC4)CC2)cc1` [Compound A46, 2-[4-[4-(4-oxo-5,6,7,8-tetrahydro-3H-quinazolin-2-yl)piperazin-1-yl]phenyl] acetonitrile]: the IC50 in assay [1] and in assay [2] was 0.3 to 3 µM throughout.

Take `O=c1[nH]c(N2CCN(c3ccc(C(F)(F)F)cc3)CC2)nc2c1CCCC2` [Compound A50, 2-[4-(4-trifluoromethylphenyl)piperazin-1-yl]-5,6,7,8-tetrahydro-3H-quinazolin-4-one]: the IC50 in assay [1] and in assay [2] was 0.3 to 3 µM throughout.

Turning to `O=C(c1ccccc1)N1CCN(c2nc3c(c(=O)[nH]2)CCCC3)CC1` [Compound A17, 2-(4-Benzoylpiperazin-1-yl)-5,6,7,8-tetrahydro-3H-quinazolin-4-one], the 50% inhibitory concentration (IC50) in assay [1] and in assay [2] was 3 to 50 µM throughout.
